# Test results as given in patent publication EP1184030A1, “Antibacterial composition comprising trimethylnorbornanylcyclohexanol derivatives” (Givaudan SA, priority 2000, dated 2002).
# Read-outs that look alike come from different tables or passages of the source.
# Tests used:
# [1] = test system: Ax 7 Corynebacterium group G; experiment: MIC microtiter plate test, axilla bacteria; assay type: cell-based; conditions: for MIC: Corynebacterium; for Bacteriostatic activity (concentration needed for at least 80% reduction in growth): Table 8
# Source text: (§1) The different bacterial strains had been isolated from the human axilla by current microbiological practice. They were taxonomically identified by cell morphology, gram-reaction and biochemical tests included in the Api coryne test kit (BioMerieux, France). Strain Staphylococcus epidermidis Ax25 was identified by fatty acid methyl ester analysis (FAME; German type strain collection DSMZ, Germany). The strains were maintained on Tryptic soy broth plates, this standard medium being amended with 5 g per Litre of Tween 80 and 1 g of Soybean lecithin. Plates were incubated at 36° C for a period 48 hours. The bacteria were then swabbed from the plates and suspended in 4 ml of Müller-Hinton broth amended with 100 mg of Tween80 per Litre (MH-Tween) and incubated again at 36° C for 16 hours. Following incubation the bacterial suspensions were diluted in MH-Tween to obtain a final cell density of 10^6 colony forming units per ml. For each fragrance material four microtiter plates were used in the example, each microtiter plate having 8 rows, A-H, and 12 columns, 1-12. To each column a diluted suspension of a different test organism was distributed, 100 µl per well. 1% stock solutions of the fragrance materials were then prepared in MH-Tween broth. The fragrance material was dispersed by ultrasonication into the aqueous medium to obtain a homogenous emulsion. 100 µl per well of this emulsion was then added to the first row of the microtiter plates already containing the target organisms. Serial dilution series were then prepared starting at row A and continuing until row G, each time removing 100 µl from a well and transferring it to the next well. In this way fragrance concentrations of 0.5%, 0.25%, 0.125%, 0.0625%, 0.03125%, 0.0156% and 0.0078% were tested for their antibacterial efficacy. The reference compound Triclosan was tested at 16 fold lower concentrations. The plates were covered with plastic films and incubated for 24 h at 36° C with shaking at 250 rpm. The turbidity developing in the microtiter plates was then examined after 24 h to determine microbial growth. The minimal concentration of fragrance inhibiting the growth of an organism by at least 80% was determined as the minimal inhibitory concentration (MIC).
# (§2) Ax 25 was identified as Staphylococcus epidermidis by FAME analysis. Identification with the Api Coryne test kit yielded the following species assignments for the remainder of the strains: Ax 26 Corynebacterium sp.; Ax 3 Corynebacterium bovis; Ax 7 Corynebacterium group G; Ax 10 Corynebacterium jeikeium; Ax 11 Corynebacterium jeikeium; Ax 12 Corynebacterium jeikeium; Ax 15 Corynebacterium jeikeium; Ax 20 Corynebacterium striatum/amycolatum; Ax 19 Corynebacterium jeikeium. The strains were isolated from the axilla of 8 human volunteers. Based on biochemical tests and colony morphology all strains were distinct from each other, even the several strains all belonging to Corynebacterium jeikeium.
# [2] = test system: Ax 12 Corynebacterium jeikeium; experiment: MIC microtiter plate test, axilla bacteria; assay type: cell-based; conditions: Corynebacterium jeikeium, read-out: Minimal inhibitory concentration (MIC)
# Source text: as §1, §2
# [3] = test system: Ax 20 Corynebacterium striatum/amycolatum; experiment: MIC microtiter plate test, axilla bacteria; assay type: cell-based; conditions: Corynebacterium striatum, read-out: Minimal inhibitory concentration (MIC)
# Source text: as §1, §2
# [4] = test system: Staphylococcus epidermidis Ax25; experiment: MIC microtiter plate test, axilla bacteria; assay type: cell-based; conditions: for MIC: Staphylococcus epidermidis; for Bacteriostatic activity (concentration needed for at least 80% reduction in growth): Table 8
# Source text: as §1, §2
# [5] = test system: Ax 3 Corynebacterium bovis; experiment: MIC microtiter plate test, axilla bacteria; assay type: cell-based; conditions: Corynebacterium bovis, read-out: Minimal inhibitory concentration (MIC)
# Source text: as §1, §2
# [6] = test system: Ax 26 Corynebacterium sp.; experiment: MIC microtiter plate test, axilla bacteria; assay type: cell-based; conditions: for MIC: Corynebacterium; for Bacteriostatic activity (concentration needed for at least 80% reduction in growth): Table 8
# Source text: as §1, §2
# [7] = test system: Ax 10 Corynebacterium jeikeium; experiment: MIC microtiter plate test, axilla bacteria; assay type: cell-based; conditions: Corynebacterium jeikeium, read-out: Minimal inhibitory concentration (MIC)
# Source text: as §1, §2
# [8] = test system: Ax 15 Corynebacterium jeikeium; experiment: MIC microtiter plate test, axilla bacteria; assay type: cell-based; conditions: for MIC: Corynebacterium jeikeium; for Bacteriostatic activity (concentration needed for at least 80% reduction in growth): Table 8
# Source text: as §1, §2
# [9] = test system: Ax 11 Corynebacterium jeikeium; experiment: MIC microtiter plate test, axilla bacteria; assay type: cell-based; conditions: Corynebacterium jeikeium, read-out: Minimal inhibitory concentration (MIC)
# Source text: as §1, §2
# Vapour pressure = assay type: physicochemical
# Source text: Odoriferous substances are by definition volatile compounds which evaporate from the skin and therefore loose their deodorising effect. Furthermore small water-soluble fragrance compounds can get dissolved in sweat and are thus rapidly diluted under conditions of high sweat secretion which further reduces the duration of the deodorising effect. Therefore a low water solubility indicated by a high LogP value and a low volatility indicated by low vapour pressure are desired for odoriferous substances which are used for their antibacterial activity.
# [10] = test system: Ax 19 Corynebacterium jeikeium; experiment: MIC microtiter plate test, axilla bacteria; assay type: cell-based; conditions: 24 h, read-out: Minimal inhibitory concentration (MIC)
# Source text: as §1, §2
# Corynebacteria = experiment: MIC microtiter plate test, Corynebacteria; assay type: cell-based
# Source text: The different bacterial strains had been isolated from the human axilla by current microbiological practice. They were taxonomically identified by cell morphology, gram-reaction and biochemical tests included in the Api coryne test kit (BioMerieux, France). Strain Staphylococcus epidermidis Ax25 was identified by fatty acid methyl ester analysis (FAME; German type strain collection DSMZ, Germany). The strains were maintained on Tryptic soy broth plates, this standard medium being amended with 5 g per Litre of Tween 80 and 1 g of Soybean lecithin. Plates were incubated at 36° C for a period 48 hours. The bacteria were then swabbed from the plates and suspended in 4 ml of Müller-Hinton broth amended with 100 mg of Tween80 per Litre (MH-Tween) and incubated again at 36° C for 16 hours. Following incubation the bacterial suspensions were diluted in MH-Tween to obtain a final cell density of 10^6 colony forming units per ml. For each fragrance material four microtiter plates were used in the example, each microtiter plate having 8 rows, A-H, and 12 columns, 1-12. […]
# Since sandela is known to be a mixture of different reaction products, commercial sandela was subjected to a distillation process. […] The different fractions were evaluated for their antimicrobial activity (Table 6) with the method described in example 1. […]
# [11] = Ax26, growth inhibition by at least 80%, 24 h at 36° C, read-out: Minimal inhibitory concentration (MIC)
# [12] = Table 7, Corynebact. Ax26, 24 hours, read-out: Bacteriostatic activity (concentration needed for at least 80% reduction in growth)
# [13] = 24 h, read-out: Bacteriostatic activity (concentration needed for at least 80% reduction in growth)
# [14] = 24 h, read-out: Minimal inhibitory concentration (MIC)
structure (smiles),measurement,setting,value
"CC(C)=CCCC(C)=CCCC(C)=CCO [Farnesol, 3,7,11-trimethyl-2,6,10-dodecatrien-1-ol]",MIC,"[1]; Ax7, growth inhibition by at least 80%, 24 h at 36° C, read-out: Minimal inhibitory concentration (MIC)",137 µg/mL
same,MIC,"[1]; Table 7, Corynebact. Ax7, 24 hours, read-out: Bacteriostatic activity (concentration needed for at least 80% reduction in growth)",137 µg/mL
same,Bacteriostatic activity (concentration needed for at least 80% reduction in growth),"[1]; Corynebact. Ax7, 24 hours",0.0137 percent (w/v)
same,MIC,"[2]; Ax12, growth inhibition by at least 80%, 24 h at 36° C",137 µg/mL
same,MIC,"[3]; Ax20, growth inhibition by at least 80%, 24 h at 36° C",137 µg/mL
same,MIC,"[4]; AX25, Ax 25, growth inhibition by at least 80%, 24 h at 36° C, read-out: Minimal inhibitory concentration (MIC)",156 µg/mL
same,MIC,"[4]; AX25, Table 7, S. epidermidis, 24 hours, read-out: Bacteriostatic activity (concentration needed for at least 80% reduction in growth)",156 µg/mL
same,Bacteriostatic activity (concentration needed for at least 80% reduction in growth),"[4]; S. epidermidis, 24 hours",0.0156 percent (w/v)
same,MIC,"[5]; Ax3, growth inhibition by at least 80%, 24 h at 36° C",156 µg/mL
same,MIC,[6]; [11],78 µg/mL
same,MIC,[6]; [12],78 µg/mL
same,Bacteriostatic activity (concentration needed for at least 80% reduction in growth),"[6]; Corynebact. Ax26, 24 hours",0.0078 percent (w/v)
same,MIC,"[7]; Ax10, growth inhibition by at least 80%, 24 h at 36° C",78 µg/mL
same,MIC,"[8]; Ax15, growth inhibition by at least 80%, 24 h at 36° C, read-out: Minimal inhibitory concentration (MIC)",156 µg/mL
same,MIC,"[8]; Table 7, Corynebact. Ax15, 24 hours, read-out: Bacteriostatic activity (concentration needed for at least 80% reduction in growth)",156 µg/mL
same,Bacteriostatic activity (concentration needed for at least 80% reduction in growth),"[8]; Corynebact. Ax15, 24 hours",0.0156 percent (w/v)
same,MIC,"[9]; Ax11, growth inhibition by at least 80%, 24 h at 36° C",195 µg/mL
same,vapour pressure,Vapour pressure,1.35 µg/L
"Oc1cc(Cl)ccc1Oc1ccc(Cl)cc1Cl [Triclosan, 2,4,4'-trichloro-2'-hydroxy-diphenyl-ether]",MIC,[1]; [13],25 µg/mL
same,MIC,[1]; [14],29 µg/mL
same,Bacteriostatic activity (concentration needed for at least 80% reduction in growth),"[1]; Corynebact. Ax7, 24 hours",0.0025 percent (w/v)
same,MIC,[2]; 24 h,17 µg/mL
same,MIC,[3]; 24 h,107 µg/mL
same,MIC,"[4]; AX25, 24 h, read-out: Bacteriostatic activity (concentration needed for at least 80% reduction in growth)",0.15 µg/mL
same,MIC,"[4]; AX25, 24 h, read-out: Minimal inhibitory concentration (MIC)",0.15 µg/mL
same,Bacteriostatic activity (concentration needed for at least 80% reduction in growth),"[4]; S. epidermidis, 24 hours",0.000015 percent (w/v)
same,MIC,[5]; 24 h,29 µg/mL
same,MIC,[6]; [11],15 µg/mL
same,MIC,[6]; [12],25 µg/mL
same,Bacteriostatic activity (concentration needed for at least 80% reduction in growth),"[6]; Corynebact. Ax26, 24 hours",0.0025 percent (w/v)
same,MIC,[7]; 24 h,20 µg/mL
same,MIC,[8]; [13],30 µg/mL
same,MIC,[8]; [14],29 µg/mL
same,Bacteriostatic activity (concentration needed for at least 80% reduction in growth),"[8]; Corynebact. Ax15, 24 hours",0.0030 percent (w/v)
same,MIC,[10],39 µg/mL
same,MIC,[9]; 24 h,29 µg/mL
"COC1CCC(C2CC3CC2C(C)C3(C)C)CC1O (centres unmarked) [2-methoxy-5-(5,5,6-trimethyl-bicyclo[2.2.1]hept-2-yl)cyclohexan-1-ol]",activity against Corynebacteria,Corynebacteria,highest activity
"COC1CC(C2CC3CC2C(C)C3(C)C)CCC1O (centres unmarked) [2-methoxy-4-(5,5,6-trimethylbicyclo[2.2.1]hept-2-yl)cyclohexan-1-ol]",activity against Corynebacteria,Corynebacteria,highest activity
